In patent US9044474B2, “Compositions and methods for increasing drug efficacy in cancer” (The Ohio State University, priority 2010, dated 2015):
Counter-ions that a name gives are not always drawn.

What was measured:
JNK1 and p38MAPK [1] = assay: Immunoblot of phosphorylated JNK1 and p38MAPK in samples from CLL patients treated with flavopiridol; type: in vivo, human; conditions: samples 4.5 hours following flavopiridol infusion
Method: (§1) Proteins extracted from whole cell lysates (50 μg/lane) were separated on polyacrylamide gels and transferred on nitrocellulose membrane. Antibodies used for immunoblots included LC3, IRE1α, TRAF2, PI3K III, ATG4C, ATG5-12, UVRAG, Beclin-1 (Cell Signaling, Boston, Mass.), GAPDH, Nrf2, ASK1, ULK1 (Santa Cruz Biotechnology), and Bif-1, ATG14-Barkor (Sigma-Aldrich, St Louis, Mo.). Species-appropriate secondary antibodies were obtained from BioRad Laboratories (Hercules, Calif.). Following antibody incubations, proteins were detected using a chemiluminescent substrate (BioRad Laboratories). For co-immunoprecipitations, TrueBlot beads (eBiosciences, San Diego, Calif.) and One-hour IP Western kit (GenScript, Piscataway, N.J.) were used according to manufacturer protocols. Quantification was done using FluorChem Q (Alpha Innotech, San Leandro Calif.).

IRE1 = assay: XBP1 splicing (IRE1 activity) PCR in CLL cells; type: cell-based, human
Method: (§2) RNA was extracted using TRIzol reagent (Invitrogen, Carlsbad, Calif.) and purified using QIAGEN RNeasy columns (Qiagen, Valencia, Calif.). cDNA was prepared with SuperScript First-Strand Synthesis System (Invitrogen). Real-time PCR was performed using primers purchased from Applied Biosystems. Detection was performed using an ABI Prism 7700 sequence detection system (Applied Biosystems). Average relative expression (treatment compared with vehicle) was normalized to the internal control gene CD52. Primers to detect spliced XBP1 were designed using Primer 3 software and purchased from IDT. Samples were analyzed on 10% acrylamide gels.

p62 [2] = assay: p62 immunoblot in CLL cells treated in vitro; type: cell-based, human; conditions: flavopiridol 2 μM, 4 hours
Method: as §1

ATF6 = ATF6 nuclear translocation by confocal fluorescence microscopy in CLL cells; type: cell-based, human; conditions: CLL patient cells, flavopiridol 2 μM or thapsigargin 1 μM, 4 hours
Method: (§3) After 4 hours exposure to agents, cells were washed in phosphate-buffered saline (PBS) and made adherent on a microscope slide by centrifugation in a Cytospin3 (Shandon) centrifuge. Immediately after cytospin, cells were fixed in cold acetone. Next, the cells were incubated in blocking solution (2% bovine serum albumin in PBS) and stained for LC3 (Cell Signaling, Boston, Mass.)) and Lamp2 (Santa Cruz Biotechnology, Santa Cruz, Calif.) by incubating separately with the respective primary antibodies over night, in 4° C., followed by incubation with fluorescent secondary antibodies (Invitrogen, Carlsbad, Calif.): Alexa fluor 594 (red) anti-rabbit for LC3 and Alexa fluor 488 (green) anti-mouse for Lamp2. Nuclei were stained blue with DAPI (Vector Laboratories, Burlingame, Calif.). Images were taken using a 60× objective and 4× digital zoom with Olympus Fluoview 1000 Laser Scanning Confocal microscope at the Ohio State University Campus Microscopy and Imaging Facility. ATF6 antibody was purchased from LifeSpan Biosciences (Seattle, Wash.) and Nrf2 was from Santa Cruz Biotechnology (Santa Cruz, Calif.). Nuclei were evaluated for ATF6 and Nrf2 using confocal microscopy to collect Z stacks, approximately 45 slices per cell, 0.2 μm each.

CLL cells [3] = assay: LC3 fluorescence in CLL cells from patients treated with flavopiridol in clinic; type: in vivo, human
Method: (§4) In this trial, CLL cells were collected pre- and post-therapy 4.5 hours, day 1 (n=16). By confocal fluorescence microscopy, both increased autophagosome formation (P=0.0011) and fusion with lysosomes is observed (FIG. 3F). […] The level of autophagy, as assessed by LC3 fluorescence intensity, was overall greater in non-responders versus responders in both pre- and post-treatment samples (P=0.018); however, the increase in intensity at 4.5 hours post- vs. pre-treatment was only slightly higher for non-responders compared to responders (fold change of 2.51 vs. 1.82, P=0.3445). […] Collectively, these studies provide evidence that our in vitro observations are relevant to the clinical setting.
as §3
LC3 intensity and number of dots per cell were both assessed in the fluorescence images. Integrated intensity was measured using Metamorph v.7.0. […] To quantify co-localization, two binary nuclei images—red (R) and green (G)—are obtained. The correlation value is calculated as the number of white pixels of (R&G) divided by the number of pixels of (RIG), where (R&G) is the intersection of R and G, and (RIG) is the union of R and G. The program used for cell counts and measurement of correlation index is based on MatLab software (Natick, Mass.) and it was developed by members of Department of Biomedical Informatics, The Ohio State University.
For the quantification of LC3 fluorescence in serial samples (in vivo data), CLL patients were classified as either “no response” (N=10) or “partial response” (N=6). […]

p62 [4] = assay: p62 immunoblot in samples from CLL patients treated with flavopiridol; type: in vivo, human; conditions: samples at 4.5 hours post flavopiridol infusion
Method: as §4
as §1, with “For co-immunoprecipitations, TrueBlot beads (eBiosciences, San Diego, Calif.) and One-hour IP Western kit (GenScript, Piscataway, N.J.) were used according to manufacturer protocols.” left out

[5] = test system: cell lines 293T, RAW and 697, normal B cells; assay: XBP1 splicing PCR in normal B cells and cell lines; type: cell-based
Method: as §2

CLL cells [6] = assay: LC3 confocal immunofluorescence (autophagosome formation) in CLL cells in vitro; type: cell-based, human; conditions: for LC3 aggregation / LC3 fluorescence (autophagosome formation) versus vehicle: CLL patient cells, 4 hours, rapamycin 5 μM, thapsigargin 1 μM, F-ara-A 5 μM, chlorambucil 20 μM, CAL-101 1 μM, rituximab 10 μg/ml, flavopiridol 2 μM, CQ 0.5 μM
Method: After 4 hours exposure to agents, cells were washed in phosphate-buffered saline (PBS) and made adherent on a microscope slide by centrifugation in a Cytospin3 (Shandon) centrifuge. Immediately after cytospin, cells were fixed in cold acetone. […] Nuclei were stained blue with DAPI (Vector Laboratories, Burlingame, Calif.). Images were taken using a 60× objective and 4× digital zoom with Olympus Fluoview 1000 Laser Scanning Confocal microscope at the Ohio State University Campus Microscopy and Imaging Facility. ATF6 antibody was purchased from LifeSpan Biosciences (Seattle, Wash.) and Nrf2 was from Santa Cruz Biotechnology (Santa Cruz, Calif.). Nuclei were evaluated for ATF6 and Nrf2 using confocal microscopy to collect Z stacks, approximately 45 slices per cell, 0.2 μm each.
LC3 intensity and number of dots per cell were both assessed in the fluorescence images. Integrated intensity was measured using Metamorph v.7.0. To calculate the number of “dots” (local extreme point in pixel-intensity profile at which a number of high-intensity pixels form a cluster), a Gaussian filter was first applied to reduce noise. Cells were enumerated electronically by an improved watershed-based algorithm. To quantify co-localization, two binary nuclei images—red (R) and green (G)—are obtained. The correlation value is calculated as the number of white pixels of (R&G) divided by the number of pixels of (RIG), where (R&G) is the intersection of R and G, and (RIG) is the union of R and G. The program used for cell counts and measurement of correlation index is based on MatLab software (Natick, Mass.) and it was developed by members of Department of Biomedical Informatics, The Ohio State University.

PERK = PERK activity by eIF2α phosphorylation immunoblot in CLL cells; type: cell-based, human
Method: as §1

JNK1 and p38MAPK [7] = assay: Immunoblot of phosphorylated JNK1 and p38MAPK in CLL cells in vitro; type: cell-based, human; conditions: flavopiridol 2 μM, thapsigargin 1 μM, F-ara-A 5 μM
Method: as §1

## CN1CC[C@H](c2c(O)cc(O)c3c(=O)cc(-c4ccccc4Cl)oc23)[C@H](O)C1 [flavopiridol, (cis-5,7-dihydroxy-2-(2-chlorophenyl)-8-[4-(3-hydroxy-1-methyl)-piperidin-yl]-1-benzopyran-4-one)hydrochloride]
JNK1 and p38MAPK [1]
  CLL patients with JNK1 and p38MAPK phosphorylation: five of ten
IRE1; CLL cells
  IRE1 activity (splicing of IRE1 substrate XBP1): no evidence of IRE1 activity
IRE1; CLL samples tested
  CLL samples with deficiency in XBP1 splicing: 8 of 10
p62 [2]
  p62 protein level: p62 levels are decreased
ATF6
  ATF6 nuclear translocation: increased nuclear translocation
CLL cells [3]; CLL patients n=16, all
  average increase in LC3 integrated intensity at 4.5 hours after flavopiridol infusion versus pretreatment: 2.16 fold
CLL cells [3]; non-responders (N=10)
  fold change of LC3 intensity 4.5 hours vs pre-treatment, non-responders: 2.51 fold
CLL cells [3]; pre- and post-treatment samples, 95% CI 1.07, 1.95
  overall LC3 intensity, non-responders compared to responders: 1.44 times
CLL cells [3]; responders (N=6)
  fold change of LC3 intensity 4.5 hours vs pre-treatment, responders: 1.82 fold
p62 [4]
  p62 protein expression: a decrease in protein expression
[5]
  XBP1 splicing: XBP1 splicing is detected
CLL cells [6]; CLL cells n=3, flavopiridol washed out after 4 hours
  LC3 fluorescence time course, flavopiridol vs vehicle: significant (P=0.001) at 3, 4 and 8 hours, and decreased to levels comparable to vehicle alone at 12 and 24 hours
CLL cells [6]
  LC3 aggregation / LC3 fluorescence (autophagosome formation) versus vehicle: formation of autophagosomes was observed
CLL cells [6]; listed as Flavopiridol
  LC3 aggregation / LC3 fluorescence (autophagosome formation) versus vehicle: comparable to the increase seen with rapamycin
PERK
  PERK activity (phosphorylation of eIF2α): minimally active
JNK1 and p38MAPK [7]
  phosphorylation of JNK1 and p38MAPK: induced the phosphorylation of both JNK1 and p38MAPK
